Values belong to the molecule of their own block, whether it stands above or below them. The source made the active and inactive calls.
Tests used:
Assay type in all cases: functional
[1] = molecular target: T1, Intestinal-type alkaline phosphatase (Mus musculus, UniProt P24822); assay: PubChem AID 488785
[2] = molecular target: T2, Alkaline phosphatase, tissue-nonspecific isozyme (Homo sapiens, UniProt P05186); assay: TNAP enzyme inhibition by screening hits, dose response, selectivity assay for mouse IAP inhibitor project, biochemical, human TNAP, uHTS hits (AID 488906)
T2 sequence (P05186 whole entry): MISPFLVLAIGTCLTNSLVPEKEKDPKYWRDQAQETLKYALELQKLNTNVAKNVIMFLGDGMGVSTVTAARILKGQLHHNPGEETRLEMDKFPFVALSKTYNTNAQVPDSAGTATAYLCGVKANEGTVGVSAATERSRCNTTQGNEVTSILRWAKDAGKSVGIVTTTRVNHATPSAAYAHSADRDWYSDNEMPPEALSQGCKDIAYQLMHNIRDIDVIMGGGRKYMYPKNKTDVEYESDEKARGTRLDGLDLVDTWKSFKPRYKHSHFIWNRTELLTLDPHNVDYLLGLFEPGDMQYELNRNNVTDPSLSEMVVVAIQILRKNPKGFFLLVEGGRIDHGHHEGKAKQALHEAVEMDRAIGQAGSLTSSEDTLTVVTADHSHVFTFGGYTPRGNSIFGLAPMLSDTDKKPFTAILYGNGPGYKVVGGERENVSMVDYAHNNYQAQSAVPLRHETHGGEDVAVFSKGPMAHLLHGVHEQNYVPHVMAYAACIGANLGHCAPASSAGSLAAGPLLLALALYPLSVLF

[3] = molecular target: T3, Intestinal-type alkaline phosphatase (Homo sapiens, UniProt P09923); assay: inhibition of human intestinal alkaline phosphatase – biochemical, dose response (AID 488876)
[4] = molecular target: T4, Kappa-type opioid receptor (Homo sapiens, UniProt P41145); assay: SAR analysis of small molecule agonists of the kappa opioid receptor via a luminescent beta-arrestin assay. [Related pubchem assays (depositor defined):AID1777, AID1786, AID1966, AID2133, AID2136, AID2348, AID2352, AID2357, AID2359, AID2370, AID2420, AID2478, AID2491, AID2492, AID2493, AID2497, AID2498, AID2500, AID449737, AID488822, AID488842]
[5] = molecular target: T5, Mu-type opioid receptor (Homo sapiens, UniProt P35372); assay: MOR agonists by imaging, SAR follow-up, image-based (AID 2352)
[6] = molecular target: T6, Delta-type opioid receptor (Homo sapiens, UniProt P41143); assay: DOR agonists, SAR follow-up, image-based (AID 2370)
[7] = molecular target: T4, Kappa-type opioid receptor; assay: KOR antagonists by imaging, SAR follow-up, image-based (AID 2348)
[8] = molecular target: T5, Mu-type opioid receptor; assay: MOR antagonists, SAR follow-up, image-based (AID 2420);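 also: compounds added before stimulation of receptor with agonist DAMGO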
[9] = molecular target: T4, Kappa-type opioid receptor; assay: KOR agonist analogs, imaging readout, SAR follow-up, image-based (AID 2359)
[10] = molecular target: T6, Delta-type opioid receptor; assay: DOR antagonists, SAR follow-up, image-based (AID 2357)
[11] = molecular target: G-protein coupled receptor 55 (Homo sapiens, UniProt Q9Y2T6); assay: GPR55 antagonists, SAR follow-up, counter-screen for GPR35 antagonist project, imaging, image-based (AID 2397)
[12] = molecular target: T1, Intestinal-type alkaline phosphatase; assay: PubChem AID 488874
[13] = molecular target: T3, Intestinal-type alkaline phosphatase; assay: human intestinal alkaline phosphatase activators, dose response, biochemical, luminescence, uHTS hits (AID 463120)
[14] = molecular target: T3, Intestinal-type alkaline phosphatase; assay: human IAP activators, dose response, biochemical, luminescent, uHTS hits, set 2 (AID 488817);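 also: potency of activators that raise enzyme activity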
[15] = molecular target: T2, Alkaline phosphatase, tissue-nonspecific isozyme; assay: TNAP enzyme activators, dose response, selectivity assay for human IAP activator project, biochemical, TNAP isozyme, human IAP uHTS hits (AID 488886);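 also: potency of compounds raising TNAP activity as a selectivity check on IAP activators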

T3 sequence (P09923 whole entry): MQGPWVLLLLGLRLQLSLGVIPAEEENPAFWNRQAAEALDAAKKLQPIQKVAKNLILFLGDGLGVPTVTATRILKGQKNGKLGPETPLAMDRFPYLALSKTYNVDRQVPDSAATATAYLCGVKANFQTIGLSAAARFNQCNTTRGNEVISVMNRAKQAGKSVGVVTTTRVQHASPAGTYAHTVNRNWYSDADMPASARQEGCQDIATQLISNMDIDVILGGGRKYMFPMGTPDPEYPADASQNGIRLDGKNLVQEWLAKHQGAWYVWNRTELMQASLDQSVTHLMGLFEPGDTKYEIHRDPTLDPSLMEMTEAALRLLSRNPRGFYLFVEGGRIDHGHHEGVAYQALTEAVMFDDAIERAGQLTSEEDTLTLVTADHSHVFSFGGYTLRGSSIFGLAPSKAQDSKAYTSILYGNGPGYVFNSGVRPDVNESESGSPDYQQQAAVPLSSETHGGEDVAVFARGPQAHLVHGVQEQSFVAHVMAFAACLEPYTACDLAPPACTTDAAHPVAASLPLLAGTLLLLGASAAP
T4 sequence (P41145 whole entry): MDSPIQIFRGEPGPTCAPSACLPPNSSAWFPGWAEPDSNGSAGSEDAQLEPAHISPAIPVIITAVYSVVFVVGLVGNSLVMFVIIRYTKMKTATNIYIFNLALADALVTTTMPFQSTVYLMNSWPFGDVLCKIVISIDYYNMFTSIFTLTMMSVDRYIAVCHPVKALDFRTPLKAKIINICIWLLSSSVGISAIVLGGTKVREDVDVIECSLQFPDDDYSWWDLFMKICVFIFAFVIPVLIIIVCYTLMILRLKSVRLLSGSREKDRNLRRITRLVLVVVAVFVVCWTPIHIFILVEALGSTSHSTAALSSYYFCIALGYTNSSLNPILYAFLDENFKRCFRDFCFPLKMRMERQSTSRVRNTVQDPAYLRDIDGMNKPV
T5 sequence (P35372 whole entry): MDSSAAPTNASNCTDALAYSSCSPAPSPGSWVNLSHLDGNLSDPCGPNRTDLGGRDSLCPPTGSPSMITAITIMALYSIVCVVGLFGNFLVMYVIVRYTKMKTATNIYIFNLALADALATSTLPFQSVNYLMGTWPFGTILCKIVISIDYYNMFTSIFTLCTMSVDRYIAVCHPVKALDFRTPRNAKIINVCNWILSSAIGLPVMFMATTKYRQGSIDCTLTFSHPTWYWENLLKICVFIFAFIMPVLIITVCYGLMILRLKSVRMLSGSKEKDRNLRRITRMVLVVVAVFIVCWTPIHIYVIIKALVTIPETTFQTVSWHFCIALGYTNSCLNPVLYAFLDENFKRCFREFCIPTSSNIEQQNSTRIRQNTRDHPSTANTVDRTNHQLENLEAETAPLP
T6 sequence (P41143 whole entry): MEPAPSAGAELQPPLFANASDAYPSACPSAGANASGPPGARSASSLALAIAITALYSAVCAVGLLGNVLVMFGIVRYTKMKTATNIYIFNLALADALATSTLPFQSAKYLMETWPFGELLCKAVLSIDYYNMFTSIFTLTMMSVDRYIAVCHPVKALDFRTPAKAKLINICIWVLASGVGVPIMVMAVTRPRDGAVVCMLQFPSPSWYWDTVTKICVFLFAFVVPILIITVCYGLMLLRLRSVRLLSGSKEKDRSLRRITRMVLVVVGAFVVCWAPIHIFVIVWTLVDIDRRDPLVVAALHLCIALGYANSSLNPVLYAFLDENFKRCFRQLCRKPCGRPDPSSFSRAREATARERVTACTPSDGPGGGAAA
T1 sequence (P24822 whole entry): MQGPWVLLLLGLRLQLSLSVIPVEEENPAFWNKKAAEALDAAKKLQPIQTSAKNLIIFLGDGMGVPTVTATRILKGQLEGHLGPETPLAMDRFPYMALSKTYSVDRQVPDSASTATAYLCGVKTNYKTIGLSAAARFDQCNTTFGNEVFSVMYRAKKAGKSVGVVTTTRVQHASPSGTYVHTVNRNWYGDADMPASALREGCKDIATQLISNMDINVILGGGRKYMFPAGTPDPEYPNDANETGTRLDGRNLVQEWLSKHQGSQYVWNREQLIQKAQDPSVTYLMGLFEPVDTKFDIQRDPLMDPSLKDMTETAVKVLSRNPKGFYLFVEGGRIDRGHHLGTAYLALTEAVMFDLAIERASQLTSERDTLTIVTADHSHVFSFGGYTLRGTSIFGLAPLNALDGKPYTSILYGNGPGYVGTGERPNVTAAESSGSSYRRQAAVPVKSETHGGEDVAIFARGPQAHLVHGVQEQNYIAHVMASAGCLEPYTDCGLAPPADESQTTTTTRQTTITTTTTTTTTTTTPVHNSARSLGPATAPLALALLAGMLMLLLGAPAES
G-protein coupled receptor 55, sequence (Q9Y2T6 whole entry): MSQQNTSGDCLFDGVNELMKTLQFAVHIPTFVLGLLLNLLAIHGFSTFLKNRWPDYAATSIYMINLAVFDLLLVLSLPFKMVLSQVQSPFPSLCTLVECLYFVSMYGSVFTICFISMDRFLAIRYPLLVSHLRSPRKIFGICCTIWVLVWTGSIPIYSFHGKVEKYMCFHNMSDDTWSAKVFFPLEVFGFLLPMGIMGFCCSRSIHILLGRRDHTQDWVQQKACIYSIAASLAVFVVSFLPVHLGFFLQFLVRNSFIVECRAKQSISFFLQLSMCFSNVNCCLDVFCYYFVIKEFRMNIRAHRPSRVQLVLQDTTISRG

IC50 [1]: 7.93 µM (active) | IC50 [2]: 74.2 µM (active) | IC50 [3]: 26.6 µM (active)
Compound: CN(CC(=O)NC(c1ccccc1)c1ccccc1)Cc1nc(O)c2ccccc2n1

EC50 [4]: > 10 µM (inactive) | EC50 [5]: > 32 µM (inactive) | EC50 [6]: > 32 µM (inactive) | IC50 [7]: > 32 µM (inactive) | IC50 [8]: > 32 µM (inactive) | EC50 [9]: 19.9 µM (inactive) | IC50 [10]: > 32 µM (inactive)
Compound: CCCCN(Cc1cc2cc(OC)ccc2[nH]c1=O)C(=O)c1ccccn1

IC50 [11]: > 32 µM (inactive)
Compound: CCC(Sc1nc2ccsc2c(=O)n1Cc1ccc(C(=O)O)cc1)C(=O)Nc1ccc(Cl)cc1 (stereo not given)

IC50 [12]: 60.7 µM (active) | EC50 [13]: 13.1 µM (active) | EC50 [14]: 16 µM (active) | EC50 [15]: 26.3 µM (active)
Compound: COc1ccc(O)c(/C=N/NC(=S)NCCc2ccccc2)c1
